{
  "source": "patent US9879243B2",
  "about": "“Culture medium for cell growth and transfection” (LIFE TECHNOLOGIES CORPORATION, priority 2001, dated 2018)",
  "key": {"293 cells [1]": {"tested_on": "293 cells", "assay": "Effect of replacement compounds on the growth of 293 cells in 293 SFM without transferrin, three passages", "type": "cell-based, human", "details": "third passage, control 5 μg/mL human holo-transferrin"}, "CHO cells": {"tested_on": "CHO cells", "assay": "Effect of replacement compounds on the growth of CHO cells in CD CHO medium without transferrin, three passages", "type": "cell-based, Chinese hamster", "details": "third passage", "method_in_brief": "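CHO cells seeded at 1×10^5 viable cells/mL in transferrin-free CD CHO medium, 37 °C, 8% CO2, subcultured every 4 days for three passages. Compounds tested alone or complexed with ferric chloride or ferrous sulfate at 25, 50 and 100 μM; growth as mean percentage of the 5 μg/mL holo-transferrin control at the third passage, duplicate cultures.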"}, "Sp2/0 cells": {"tested_on": "Sp2/0 cells", "assay": "Effect of replacement compounds on the growth of Sp2/0 cells in CD Hybridoma medium without transferrin, three passages", "type": "cell-based", "details": "third passage"}, "293 cells [2]": {"tested_on": "293 cells", "assay": "Growth and adaptation of 293 cells to test media before transfection", "type": "cell-based, human", "details": "for support of growth at the ZnSO4 concentrations tested: Example 7, ethyl maltol 50 μM, 2-hydroxypyridine 25 μM, DPTA.FeSO4 50 μM, ZnSO4 0.5×-5×", "experimental": "When cultured in suspension, cells were split to 3×10^5 viable cells per ml at each passage. On the week of transfection cells were seeded at 3×10^5 viable cells per ml. After ˜48 hrs of growth (day 2) cells were vortexed for 30 seconds and counted and appropriate volumes used for transfection as described in procedures below.\n293 cells were grown in monolayer culture in base medium supplemented with the indicated replacement compounds at the concentrations specified in Table 9."}, "[3]": {"details": "25 μM, iron equimolar where combined"}, "[4]": {"details": "25 μM, control 5 μg/mL human holo-transferrin"}},
  "data": [
    {"compound": "Diethylenetriamine Penta-Acetic Acid•Ferrous Sulfate", "values": [
      {"measurement": "mean percentage of control growth", "setting": "293 cells [1]; [3]", "result": "77 percentage of control growth"},
      {"measurement": "mean percentage of control growth", "setting": "293 cells [1]; 50 μM", "result": "107 percentage of control growth"},
      {"measurement": "mean percentage of control growth", "setting": "293 cells [1]; 100 μM", "result": "85 percentage of control growth"},
      {"measurement": "mean percentage of control growth", "setting": "CHO cells; [4]", "result": "135 percentage of control growth"},
      {"measurement": "mean percentage of control growth", "setting": "CHO cells; 50 μM", "result": "137 percentage of control growth"},
      {"measurement": "mean percentage of control growth", "setting": "CHO cells; 100 μM", "result": "147 percentage of control growth"},
      {"measurement": "mean percentage of control growth", "setting": "Sp2/0 cells; [4]", "result": "54 percentage of control growth"},
      {"measurement": "mean percentage of control growth", "setting": "Sp2/0 cells; 50 μM", "result": "90 percentage of control growth"},
      {"measurement": "mean percentage of control growth", "setting": "Sp2/0 cells; 100 μM", "result": "91 percentage of control growth"},
      {"measurement": "growth in the presence of ZnSO4", "setting": "293 cells [2]; Example 6, in combination with ZnSO4 instead of insulin", "result": "acceptable"},
      {"measurement": "support of growth at the ZnSO4 concentrations tested", "setting": "293 cells [2]", "result": "supported growth at concentrations of 1×, 2× and 5× ZnSO4, but not at 0.5×"}
    ]},
    {"compound": "CCc1occc(=O)c1O", "note": "[2-Ethyl-3-Hydroxy-4-Pyrone]", "values": [
      {"measurement": "mean percentage of control growth", "setting": "293 cells [1]; [3]", "result": "59 percentage of control growth"},
      {"measurement": "mean percentage of control growth", "setting": "293 cells [1]; 50 μM", "result": "120 percentage of control growth"},
      {"measurement": "mean percentage of control growth", "setting": "293 cells [1]; 100 μM", "result": "126 percentage of control growth"},
      {"measurement": "mean percentage of control growth", "setting": "CHO cells; [4]", "result": "9 percentage of control growth"},
      {"measurement": "mean percentage of control growth", "setting": "CHO cells; 50 μM", "result": "60 percentage of control growth"},
      {"measurement": "mean percentage of control growth", "setting": "CHO cells; 100 μM", "result": "113 percentage of control growth"},
      {"measurement": "mean percentage of control growth", "setting": "Sp2/0 cells; [4]", "result": "0 percentage of control growth"},
      {"measurement": "mean percentage of control growth", "setting": "Sp2/0 cells; 50 μM", "result": "75 percentage of control growth"},
      {"measurement": "mean percentage of control growth", "setting": "Sp2/0 cells; 100 μM", "result": "116 percentage of control growth"},
      {"measurement": "support of growth", "setting": "293 cells [2]; Example 6, 100 μM", "result": "did not support growth"},
      {"measurement": "support of growth at the ZnSO4 concentrations tested", "setting": "293 cells [2]", "result": "supported growth at all concentrations of ZnSO4 tested"}
    ]}
  ]
}
